How the values were obtained:
Assay type in all cases: physicochemical
[1] = long-term stability test; details: 36 months, temperature 25° C. ±2° C.; relative humidity 60%±5%
[2] = acceleration test (stability); details: relative humidity 75%±5%; for (%) Impurity B (%) / Crystal form / appearance / Enantiomer (%) / Impurity A (%) / Impurity C (%) / Loss on drying (%) / Single largest impurity (%) / Total relevant substances (%) / content(%): 40° C.±2° C.
Description: (§1) Stability tests were performed on the samples of Examples 1, 2, 3, 4 and 5. […] Please refer to the results of the acceleration test (40° C.±2° C., relative humidity 75%±5%) of Table 1 and the results of the long-term stability test (25° C.±2° C., relative humidity 60%±10%) of Table 2.

[3] = long-term stability test; details: 25° C.±2° C., relative humidity 60%±10%
Description: as §1

## (S)-2-(4-fluorophenyl)-4-(piperidine-3-aminomethyl)thieno[2,3-d]pyridazine-7-carboxamide hydrochloride [Example 1]
[1]
  changes in moisture, related substances, optical isomers and contents under storage conditions: no significant changes
[2]; 6 months, temperature 40° C.±2° C.
  changes in moisture, related substances, optical isomers and contents under storage conditions: no significant changes

## (S)-2-(4-fluorophenyl)-4-(piperidine-3-aminomethyl)thieno[2,3-d]pyridazine-7-carboxamide hydrochloride [Example 110601-3]
[3]; 0 month
  Crystal form: unchanged
  ImpurityB(%): 0.00%
[3]; 0 month, hydrochloride
  Content (calculated by dried product )(%): 99.6%
  Enantiomers (%): 0.09%
  ImpurityA(%): 0.28%
  ImpurityC(%): 0.02%
  Loss on drying (%): 7.2%
  Single largest impurity (%): 0.01%
  Total relevant substances (%): 0.37%
  appearance: yellow crystalline powder
[3]; 3 months
  Crystal form: unchanged
  ImpurityB(%): 0.00%
  ImpurityC(%): 0.02%
[3]; 3 months, hydrochloride
  Content (calculated by dried product )(%): 100.2%
  Enantiomers (%): 0.09%
  ImpurityA(%): 0.26%
  Loss on drying (%): 7.1%
  Single largest impurity (%): 0.03%
  Total relevant substances (%): 0.35%
  appearance: yellow crystalline powder
[3]; 6 months
  Crystal form: unchanged
  ImpurityB(%): 0.00%
[3]; 6 months, hydrochloride
  Content (calculated by dried product )(%): 99.6%
  Enantiomers (%): 0.08%
  ImpurityA(%): 0.25%
  ImpurityC(%): 0.02%
  Loss on drying (%): 7.2%
  Single largest impurity (%): 0.03%
  Total relevant substances (%): 0.35%
  appearance: yellow crystalline powder
[3]; 9 months
  Crystal form: unchanged
  ImpurityC(%): 0.02%
[3]; 9 months, hydrochloride
  Content (calculated by dried product )(%): 99.5%
  Enantiomers (%): 0.09%
  ImpurityA(%): 0.25%
  ImpurityB(%): 0.01%
  Loss on drying (%): 7.2%
  Single largest impurity (%): 0.02%
  Total relevant substances (%): 0.38%
  appearance: yellow crystalline powder
[3]; 12 months
  Crystal form: unchanged
  ImpurityB(%): 0.01%
  Single largest impurity (%): 0.02%
[3]; 12 months, hydrochloride
  Content (calculated by dried product )(%): 99.9%
  Enantiomers (%): 0.08%
  ImpurityA(%): 0.25%
  ImpurityC(%): 0.03%
  Loss on drying (%): 7.3%
  Total relevant substances (%): 0.35%
  appearance: yellow crystalline powder
[3]; 18 months
  Crystal form: unchanged
  ImpurityB(%): 0.00%
  Single largest impurity (%): 0.02%
[3]; 18 months, hydrochloride
  Content (calculated by dried product )(%): 101.1%
  Enantiomers (%): 0.06%
  ImpurityA(%): 0.25%
  ImpurityC(%): 0.03%
  Loss on drying (%): 7.1%
  Total relevant substances (%): 0.31%
  appearance: yellow crystalline powder
[3]; 24 months
  Crystal form: unchanged
  Enantiomers (%): 0.08%
  ImpurityB(%): 0.00%
  ImpurityC(%): 0.02%
  Single largest impurity (%): 0.02%
[3]; 24 months, hydrochloride
  Content (calculated by dried product )(%): 98.6%
  ImpurityA(%): 0.25%
  Loss on drying (%): 7.3%
  Total relevant substances (%): 0.34%
  appearance: yellow crystalline powder
[3]; 36 months
  Crystal form: unchanged
  ImpurityC(%): 0.02%
  Single largest impurity (%): 0.02%
[3]; 36 months, hydrochloride
  Content (calculated by dried product )(%): 99.7%
  Enantiomers (%): 0.06%
  ImpurityA(%): 0.26%
  ImpurityB(%): 0.01%
  Loss on drying (%): 7.0%
  Total relevant substances (%): 0.36%
  appearance: yellow crystalline powder
[2]; 0 month
  (%) Impurity B (%): 0.00%
  Crystal form: unchanged
  appearance: yellow crystalline powder
[2]; 0 month, hydrochloride
  Enantiomer (%): 0.09%
  Impurity A (%): 0.28%
  Impurity C (%): 0.02%
  Loss on drying (%): 7.2%
  Single largest impurity (%): 0.01%
  Total relevant substances (%): 0.37%
  content(%): 99.6%
[2]; 1 month
  Crystal form: unchanged
  Impurity C (%): 0.02%
  appearance: yellow crystalline powder
[2]; 1 month, hydrochloride
  (%) Impurity B (%): 0.03%
  Enantiomer (%): 0.11%
  Impurity A (%): 0.25%
  Loss on drying (%): 7.2%
  Single largest impurity (%): 0.02%
  Total relevant substances (%): 0.39%
  content(%): 100.0%
[2]; 2 months
  Crystal form: unchanged
  appearance: yellow crystalline powder
[2]; 2 months, hydrochloride
  (%) Impurity B (%): 0.03%
  Enantiomer (%): 0.1%
  Impurity A (%): 0.26%
  Impurity C (%): 0.02%
  Loss on drying (%): 7.2%
  Single largest impurity (%): 0.03%
  Total relevant substances (%): 0.38%
  content(%): 98.2%
[2]; 3 months
  (%) Impurity B (%): 0.00%
  Crystal form: unchanged
  Impurity C (%): 0.02%
  appearance: yellow crystalline powder
[2]; 3 months, hydrochloride
  Enantiomer (%): 0.09%
  Impurity A (%): 0.25%
  Loss on drying (%): 7.2%
  Single largest impurity (%): 0.02%
  Total relevant substances (%): 0.33%
  content(%): 99.9%
[2]; 6 months
  (%) Impurity B (%): 0.00%
  Crystal form: unchanged
  Impurity C (%): 0.02%
  appearance: yellow crystalline powder
[2]; 6 months, hydrochloride
  Enantiomer (%): 0.08%
  Impurity A (%): 0.21%
  Loss on drying (%): 7.1%
  Single largest impurity (%): 0.02%
  Total relevant substances (%): 0.28%
  content(%): 99.7%

From patent US20230183259A1, “Crystal Form Of Thiofuran Pyridazine Compound, Preparation Method Therefor And Application Thereof” (ZHEJIANG MEDICINE CO., LTD. XINCHANG PHARMACEUTICAL FACTORY, priority 2020, published 2023)
